The results in this text go back to patent US10399931B2, “Octahydroanthracene compound, preparation method and application thereof” (SHANDONG XINHUA PHARMACEUTICAL CO., LTD., priority 2016, dated 2019).

Series [1] has as its system APP/PS1 double transgenic AD model mice. The series can be described thus: Pathology of hippocampal CA1 neurons in APP/PS1 mice. The class given is in vivo.
The next series relates to mice. Put plainly: LD50 test, single intragastric dose (preliminary safety evaluation). The class given is in vivo. The conditions noted are these: 5000 mg/kg intragastric.
Another series has as its system tau protein. Put plainly: Tau protein phosphorylation. Further details: species or system mice. The note with it: mouse, in vivo.
Series [2] has as its system Human leukemia HL60 cells. Put plainly: MTT assay, proliferation of human leukemia HL60 cells. The conditions noted are these: Homo sapiens, HL-60, 48 h, 10 μM, 48 h, Mean ± SE; read-out: Inhibitive rate (%) against HL60 cells. The series is classed as cell-based. As for the experimental part:
The survival rate of cells was determined by MTT assay, which is based on the metabolic reduction of 3-(4,5-dimethyl-2thiahiazoyl)-3,5-di-phenyl-tetrazolium bromide (MTT) by viable cells. MTT is a yellow compound, a dye that accepts hydrogen ion, which can act on the respiratory chain in the mitochondria of viable cells. Under the action of succinate dehydrogenase and cytochrome C, the tetrazolium ring was cleaved to form blue Formazan crystals, and the amount of Formazan crystals generated was only proportional to the number of the viable cells. The enzymes disappeared in dead cells, so Formazan crystals could not be dissolved in MTT solution containing 20% sodium dodecyl sulfate (pH 4.7).
The cells in the logarithmic growth phase were selected and adjusted to an appropriate cell density, seeded in a 96-well plate, 100 μl/well, and cultured in a 37° C., 5% CO2 incubator. The cells were allowed to adhere overnight, then the culture medium was replaced and the drug was added to cultivate for 48 h. A blank control group, a drug administration group and a positive control group were set, with four repeats in each group.
After 48 h of drug treatment, the cells were incubated with 0.25 mg/ml MTT at 37° C. for 3-4 h, and 100 μl of dimethyl sulfoxide (DMSO) was added to each well after aspirating the culture solution.
A general note: Tetrazolium dyes change colour on reduction, which living cells bring about.

Series [3] deals with APP/PS1 double transgenic AD model mice. The series can be described thus: β-amyloid deposition in cerebral cortex and hippocampus of APP/PS1 mice. The series is classed as in vivo. As for the experimental part: The drugs were administered three days after the adaptive feeding. Peanut oil was used as the solvent. […] On the 6th to 9th day after the administration, the new object identification test was performed. On the 10th day, the Y-maze test was performed. On the 11th to 15th day, the Morris water maze test was performed to determine the improvement of learning and memory. The administration of the drugs was continued during the behavioral experiment until the animals were sacrificed (16th day).
After the behavioral experiment, the mice were anesthetized with an intraperitoneal injection of 3.5% chloral hydrate 3.5% (about […] for each mouse). Then the back of the mouse was fixed on the operating table and the chest was open to expose the heart. A perfusion needle was inserted into the left ventricle from the apex of the heart, while the right atrial appendage cut a small opening. First, perfusion was performed with about 200 ml saline. When the tail of the mouse was cut to find no blood, 300 ml 4% paraformaldehyde buffer (0.1 mol/L) at 4° C. was used to perfuse until the body of the mouse was stiff. The mouse was then decapitated, and the whole brain was obtained and fixed in 4% paraformaldehyde at 4° C. After 24 h, the brain was embedded in conventional paraffin and coronally sectioned to obtain the tissue sections with a thickness of 5 μm for immunohistochemical staining. […]

With `CC1(C)CCC(C)(C)c2c1cc1c(c2NC(=O)c2ccc(NC(=O)NCCN)cc2)C(C)(C)CCC1(C)C` [OAB-14, 1-(2-amino) ethyl-3-{4-[(1,1,4,4,5,5,8,8-octamethyl-1,2,3,4,5,6,7,8-octahydro-9-anthryl)carbamoyl]phenyl} urea], the “Morphology of hippocampal CA1 neurons” value in series [1] (100 mg/kg group) is “closely arranged, no visible edema and nuclear pyknosis”. The “Morphology of hippocampal CA1 neurons” value in series [1] (200 mg/kg group) was “closely arranged, no visible edema and nuclear pyknosis”. Further, in the series on mice, the “Abnormalities in organs such as heart, liver, spleen and kidney” value was “no abnormalities were detected”; the “Adverse reactions observed with the naked eye” value is given as “no visible adverse reactions were observed”. The Tau protein phosphorylation result in the series on tau protein is given as “reducing the tau protein phosphorylation”. Moreover, in series [2], the inhibition at 10 µM was found to be 24.3 ± 3.18%. For the same compound, the “Reduction of the deposition of β-amyloid protein in cerebral cortex and hippocampus” value in series [3] (200 mg/kg, continuous intragastric administration 14 days, 8-month-old APP/PS1 mice) is 67.4%. Further, the “Dose-effect relationship of the reduction of β-amyloid deposition” value in series [3] (dose range 50-200 mg/kg, intragastric, 14 days) is “good dose-effect relationship”.
